Two compounds from ChEMBL document CHEMBL2074334, “Altered hepatobiliary disposition of acetaminophen glucuronide in isolated perfused livers from multidrug resistance-associated protein 2-deficient TR(-) rats” (J Pharmacol Exp Ther, 2000) can be followed below.

This data set concerns the target ATP-binding cassette sub-family C member 2 (Rattus norvegicus, UniProt Q63120). As to the kind of experiment: TP_TRANSPORTER: decrease in biliary excretion in isolated perfused liver from TR- rat. The format is functional.

Chain of ATP-binding cassette sub-family C member 2 (Q63120 whole entry, the tested form may be a part): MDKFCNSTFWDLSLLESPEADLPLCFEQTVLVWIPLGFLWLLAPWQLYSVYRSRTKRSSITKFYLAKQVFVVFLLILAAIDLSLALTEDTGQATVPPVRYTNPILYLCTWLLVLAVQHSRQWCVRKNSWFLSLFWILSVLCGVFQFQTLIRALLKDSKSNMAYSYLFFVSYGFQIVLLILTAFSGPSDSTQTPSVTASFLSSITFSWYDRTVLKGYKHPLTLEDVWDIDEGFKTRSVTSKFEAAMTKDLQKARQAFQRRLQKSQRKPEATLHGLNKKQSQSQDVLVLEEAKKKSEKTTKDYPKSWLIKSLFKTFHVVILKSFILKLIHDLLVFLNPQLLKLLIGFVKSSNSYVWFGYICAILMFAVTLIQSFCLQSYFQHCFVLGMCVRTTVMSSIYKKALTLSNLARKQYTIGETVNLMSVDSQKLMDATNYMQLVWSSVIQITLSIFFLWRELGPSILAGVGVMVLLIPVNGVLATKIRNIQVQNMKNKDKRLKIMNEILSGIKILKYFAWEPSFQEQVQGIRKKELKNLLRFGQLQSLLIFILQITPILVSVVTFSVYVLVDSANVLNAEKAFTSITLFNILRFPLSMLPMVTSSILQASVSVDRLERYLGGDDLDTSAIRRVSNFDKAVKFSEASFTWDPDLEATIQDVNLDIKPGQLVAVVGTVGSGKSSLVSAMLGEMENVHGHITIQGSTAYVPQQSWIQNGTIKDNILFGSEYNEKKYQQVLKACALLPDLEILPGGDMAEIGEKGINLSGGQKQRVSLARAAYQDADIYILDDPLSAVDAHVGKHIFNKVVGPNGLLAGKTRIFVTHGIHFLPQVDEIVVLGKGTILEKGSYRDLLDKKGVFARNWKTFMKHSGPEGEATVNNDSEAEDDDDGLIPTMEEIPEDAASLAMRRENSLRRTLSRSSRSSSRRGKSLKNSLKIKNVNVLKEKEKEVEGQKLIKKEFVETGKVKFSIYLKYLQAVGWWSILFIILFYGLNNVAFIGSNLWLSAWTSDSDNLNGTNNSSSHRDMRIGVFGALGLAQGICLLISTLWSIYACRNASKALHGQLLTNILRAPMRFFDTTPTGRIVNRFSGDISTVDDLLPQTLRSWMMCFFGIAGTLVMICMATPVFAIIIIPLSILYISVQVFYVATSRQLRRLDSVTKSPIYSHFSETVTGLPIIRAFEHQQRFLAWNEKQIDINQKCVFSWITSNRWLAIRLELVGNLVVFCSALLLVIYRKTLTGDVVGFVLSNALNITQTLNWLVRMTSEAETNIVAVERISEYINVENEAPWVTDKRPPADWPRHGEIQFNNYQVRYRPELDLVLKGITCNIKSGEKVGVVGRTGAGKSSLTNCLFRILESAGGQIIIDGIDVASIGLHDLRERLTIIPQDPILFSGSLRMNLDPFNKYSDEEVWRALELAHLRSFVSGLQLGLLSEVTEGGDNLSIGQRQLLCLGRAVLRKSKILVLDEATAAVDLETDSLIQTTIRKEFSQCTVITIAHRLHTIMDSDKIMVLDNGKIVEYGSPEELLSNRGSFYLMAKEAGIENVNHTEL

As to `CC(=O)Nc1ccccc1.O=S(=O)(O)O`, the Activity entry is “substrate [+]”.

Regarding `CC(=O)Nc1ccc(O[C@@H]2O[C@H](C(=O)O)[C@@H](O)[C@H](O)[C@H]2O)cc1` [ACETAMINOPHEN GLUCURONIDE], the Activity entry is “substrate [+]”.
